The text below walks through data of ChEMBL document CHEMBL3044926, “Controlling powdery mildew on cucurbit rootstock seedlings in the greenhouse with fungicides and biofungicides” (Crop Prot, 2012).

The subject of data set [1] is Podosphaera xanthii. Nature of the data set: Fungicidal activity against Podosphaera xanthii (powdery mildew) inoculated in inter-specific squash hybrid Strong tosa (Cucurbita moschata x Cucurbita maxima) rootstock seedlings continuously after first drug application assessed as incidence of disease symptoms on hypocotyls or upper or lower sides of cotyledons at 38.7% in 0.62 ml/L applied thrice at 5-days intervals measured 5 days after …. Format: functional.

Data set [2] deals with Podosphaera xanthii. Nature of the data set: Fungicidal activity against Podosphaera xanthii (powdery mildew) inoculated in inter-specific squash hybrid Strong tosa (Cucurbita moschata x Cucurbita maxima) rootstock seedlings continuously after first drug application assessed as disease severity at 38.7% in 0.62 ml/L applied thrice at 5-days intervals measured 5 days after third application under green house conditions (water Rvb = 4.2%). Format: functional.

Data set [3] concerns Podosphaera xanthii. Nature of the data set: Fungicidal activity against Podosphaera xanthii (powdery mildew) inoculated in inter-specific squash hybrid Strong tosa (Cucurbita moschata x Cucurbita maxima) rootstock seedlings for 7 days prior to drug application assessed as disease severity on upper surface areas of cotyledonsat 38.7% in 0.62 ml/L applied once measured 7 days post-drug dose under greenhouse conditions (water Rvb = 10.2%). Format: functional.

For data set [4], the system named is Podosphaera xanthii. Briefly: Fungicidal activity against Podosphaera xanthii (powdery mildew) inoculated in inter-specific squash hybrid Strong tosa (Cucurbita moschata x Cucurbita maxima) rootstock seedlings for 7 days prior to drug application assessed as incidence of disease symptoms on hypocotyls or upper or lower sides of cotyledons at 38.7% in 0.62 ml/L applied once measured 7 days post-drug dose under greenhouse …. Format: functional.

Data set [5] has as its system Podosphaera xanthii. Nature of the data set: Fungicidal activity against Podosphaera xanthii (powdery mildew) inoculated in squash (Cucurbita pepo) rootstock seedlings continuously after first drug application assessed as disease severity at 38.7% in 0.62 ml/L applied thrice at 5-days intervals measured 5 days after third application under green house conditions (water Rvb = 3.9%). Format: functional.

In data set [6] the test system is Podosphaera xanthii. Briefly: Fungicidal activity against Podosphaera xanthii (powdery mildew) inoculated in squash (Cucurbita pepo) rootstock seedlings continuously after first drug application assessed as incidence of disease symptoms on hypocotyls or upper or lower sides of cotyledons at 38.7% in 0.62 ml/L applied thrice at 5-days intervals measured 5 days after third application under green house conditions (water Rvb = …. Format: functional.

Data set [7] concerns Cucurbita maxima x Cucurbita moschata. Nature of the data set: Phytotoxicity against inter-specific squash hybrid Cucurbita moschata x Cucurbita maxima (Strong tosa) rootstock seedlings assessed as seedlings with stunted growth. Format: organism-based. The conditions noted are these: in vivo.
Data set [8] has the same test system. Briefly: Phytotoxicity against inter-specific squash hybrid Cucurbita moschata x Cucurbita maxima (Strong tosa) rootstock seedlings assessed as stunted growth. Format: organism-based. The conditions noted are these: in vivo.
The test system of data set [9] is Podosphaera xanthii. Nature of the data set: Fungicidal activity against Podosphaera xanthii (powdery mildew) inoculated in inter-specific squash hybrid Strong tosa (Cucurbita moschata x Cucurbita maxima) rootstock seedlings for 7 days prior to drug application assessed as disease severity on lower surface areas of cotyledonsat 38.7% in 0.62 ml/L applied once measured 7 days post-drug dose under greenhouse conditions (water Rvb = 5.1%). Format: functional.

The test system of data set [10] is Podosphaera xanthii. Nature of the data set: Fungicidal activity against Podosphaera xanthii (powdery mildew) inoculated in Lagenaria siceraria Emphasis continuously after first drug application assessed as disease severity on upper surface areas of cotyledons at 38.7% in 0.62 ml/L applied thrice at 5-days intervals measured 5 days after third application under green house conditions (water Rvb = 36.8%). Format: functional.

For data set [11], the system named is Podosphaera xanthii. Nature of the data set: Fungicidal activity against Podosphaera xanthii (powdery mildew) inoculated in Lagenaria siceraria Emphasis continuously after first drug application assessed as incidence of disease symptoms on hypocotyls or upper or lower sides of cotyledons at 38.7% in 0.62 ml/L applied thrice at 5-days intervals measured 5 days after third application under green house conditions (water Rvb = 100%). Format: functional.

The subject of data set [12] is Podosphaera xanthii. Nature of the data set: Fungicidal activity against Podosphaera xanthii (powdery mildew) inoculated in Lagenaria siceraria Emphasis continuously after first drug application assessed as disease severity on lower surface areas of cotyledons at 38.7% in 0.62 ml/L applied thrice at 5-days intervals measured 5 days after third application under green house conditions (water Rvb = 13.9%). Format: functional.

In data set [13] the test system is Podosphaera xanthii. Briefly: Fungicidal activity against Podosphaera xanthii (powdery mildew) inoculated in inter-specific squash hybrid Strong tosa (Cucurbita moschata x Cucurbita maxima) rootstock seedlings for 7 days prior to drug application assessed as disease severity at 38.7% in 0.62 ml/L applied once measured 7 days post-drug dose under greenhouse conditions (water Rvb = 17.5%). Format: functional.

The test system of data set [14] is Lagenaria siceraria. Briefly: Phytotoxicity against Lagenaria siceraria 'Emphasis' rootstock seedlings assessed as seedlings with stunted growth. The conditions noted are these: in vivo. Format: organism-based.
Data set [15] deals with Lagenaria siceraria. Briefly: Phytotoxicity against Lagenaria siceraria 'Emphasis' rootstock seedlings assessed as stunted growth. Format: organism-based. The conditions noted are these: in vivo.
The test system of data set [16] is Podosphaera xanthii. Briefly: Fungicidal activity against Podosphaera xanthii (powdery mildew) inoculated in Lagenaria siceraria Emphasis continuously after first drug application assessed as disease severity at 38.7% in 0.62 ml/L applied thrice at 5-days intervals measured 5 days after third application under green house conditions (water Rvb = 53.5%). Format: functional.

For data set [17], the system named is Cucurbita maxima x Cucurbita moschata. Briefly: Phytotoxicity against inter-specific squash hybrid Cucurbita moschata x Cucurbita maxima (Strong tosa) rootstock seedlings. Format: organism-based. The conditions noted are these: in vivo.
Data set [18] relates to Lagenaria siceraria. Briefly: Phytotoxicity against Lagenaria siceraria 'Emphasis' rootstock seedlings. Format: organism-based. The conditions noted are these: in vivo.
In data set [19] the test system is Cucurbita maxima x Cucurbita moschata. Nature of the data set: Phytotoxicity against inter-specific squash hybrid Cucurbita moschata x Cucurbita maxima (Strong tosa) rootstock seedlings assessed as stunting. Format: organism-based. The conditions noted are these: in vivo.
Data set [20] has as its system Lagenaria siceraria. Briefly: Phytotoxicity against Lagenaria siceraria 'Emphasis' rootstock seedlings assessed as stunting. Format: organism-based. The conditions noted are these: in vivo.
Data set [21] deals with Podosphaera xanthii. Nature of the data set: Fungicidal activity against Podosphaera xanthii (powdery mildew) inoculated in squash (Cucurbita pepo) rootstock seedlings continuously after first drug application assessed as incidence of disease symptoms on hypocotyls or upper or lower sides of cotyledons at 40% in 0.37 ml/L applied thrice at 5-days intervals measured 5 days after third application under green house conditions (water Rvb = …. Format: functional.

Data set [22] deals with Podosphaera xanthii. Briefly: Fungicidal activity against Podosphaera xanthii (powdery mildew) inoculated in inter-specific squash hybrid Strong tosa (Cucurbita moschata x Cucurbita maxima) rootstock seedlings for 7 days prior to drug application assessed as incidence of disease symptoms on hypocotyls or upper or lower sides of cotyledons at 40% in 0.37 ml/L applied once measured 7 days post-drug dose under greenhouse …. Format: functional.

Data set [23] has as its system Podosphaera xanthii. Briefly: Fungicidal activity against Podosphaera xanthii (powdery mildew) inoculated in Lagenaria siceraria Emphasis continuously after first drug application assessed as incidence of disease symptoms on hypocotyls or upper or lower sides of cotyledons at 40% in 0.37 ml/L applied thrice at 5-days intervals measured 5 days after third application under green house conditions (water Rvb = 100%). Format: functional.

The subject of data set [24] is Podosphaera xanthii. Nature of the data set: Fungicidal activity against Podosphaera xanthii (powdery mildew) inoculated in inter-specific squash hybrid Strong tosa (Cucurbita moschata x Cucurbita maxima) rootstock seedlings for 7 days prior to drug application assessed as disease severity on lower surface areas of cotyledonsat 40% in 0.37 ml/L applied once measured 7 days post-drug dose under greenhouse conditions (water Rvb = 5.1%). Format: functional.

In data set [25] the test system is Podosphaera xanthii. Briefly: Fungicidal activity against Podosphaera xanthii (powdery mildew) inoculated in inter-specific squash hybrid Strong tosa (Cucurbita moschata x Cucurbita maxima) rootstock seedlings for 7 days prior to drug application assessed as disease severity at 40% in 0.37 ml/L applied once measured 7 days post-drug dose under greenhouse conditions (water Rvb = 17.5%). Format: functional.

Data set [26] concerns Podosphaera xanthii. Nature of the data set: Fungicidal activity against Podosphaera xanthii (powdery mildew) inoculated in squash (Cucurbita pepo) rootstock seedlings continuously after first drug application assessed as disease severity at 40% in 0.37 ml/L applied thrice at 5-days intervals measured 5 days after third application under green house conditions (water Rvb = 3.9%). Format: functional.

The subject of data set [27] is Podosphaera xanthii. Nature of the data set: Fungicidal activity against Podosphaera xanthii (powdery mildew) inoculated in Lagenaria siceraria Emphasis continuously after first drug application assessed as disease severity on lower surface areas of cotyledons at 40% in 0.37 ml/L applied thrice at 5-days intervals measured 5 days after third application under green house conditions (water Rvb = 13.9%). Format: functional.

In data set [28] the test system is Podosphaera xanthii. Briefly: Fungicidal activity against Podosphaera xanthii (powdery mildew) inoculated in Lagenaria siceraria Emphasis continuously after first drug application assessed as disease severity at 40% in 0.37 ml/L applied thrice at 5-days intervals measured 5 days after third application under green house conditions (water Rvb = 53.5%). Format: functional.

In data set [29] the test system is Podosphaera xanthii. Briefly: Fungicidal activity against Podosphaera xanthii (powdery mildew) inoculated in inter-specific squash hybrid Strong tosa (Cucurbita moschata x Cucurbita maxima) rootstock seedlings for 7 days prior to drug application assessed as disease severity on upper surface areas of cotyledonsat 40% in 0.37 ml/L applied once measured 7 days post-drug dose under greenhouse conditions (water Rvb = 10.2%). Format: functional.

The subject of data set [30] is Podosphaera xanthii. Briefly: Fungicidal activity against Podosphaera xanthii (powdery mildew) inoculated in Lagenaria siceraria Emphasis continuously after first drug application assessed as disease severity on upper surface areas of cotyledons at 40% in 0.37 ml/L applied thrice at 5-days intervals measured 5 days after third application under green house conditions (water Rvb = 36.8%). Format: functional.

In data set [31] the test system is Podosphaera xanthii. Briefly: Fungicidal activity against Podosphaera xanthii (powdery mildew) inoculated in squash (Cucurbita pepo) rootstock seedlings continuously after first drug application assessed as incidence of disease symptoms on hypocotyls or upper or lower sides of cotyledons at 46.1% in 1.50 g/L applied thrice at …. Format: functional, organism-based.

For data set [32], the system named is Podosphaera xanthii. Nature of the data set: Fungicidal activity against Podosphaera xanthii (powdery mildew) inoculated in inter-specific squash hybrid Strong tosa (Cucurbita moschata x Cucurbita maxima) rootstock seedlings for 7 days prior to drug application assessed as disease severity on lower surface areas of cotyledonsat 46.1% in 1.50 g/L applied once measured 7 days post-drug dose under greenhouse conditions (water Rvb = 5.1%). Format: functional, organism-based.

In data set [33] the test system is Podosphaera xanthii. Briefly: Fungicidal activity against Podosphaera xanthii (powdery mildew) inoculated in inter-specific squash hybrid Strong tosa (Cucurbita moschata x Cucurbita maxima) rootstock seedlings for 7 days prior to drug application assessed as disease severity on upper surface areas of cotyledonsat 46.1% in 1.50 g/L applied once measured 7 days post-drug dose under greenhouse conditions (water Rvb = 10.2%). Format: functional, organism-based.

Data set [34] relates to Podosphaera xanthii. Briefly: Fungicidal activity against Podosphaera xanthii (powdery mildew) inoculated in inter-specific squash hybrid Strong tosa (Cucurbita moschata x Cucurbita maxima) rootstock seedlings for 7 days prior to drug application assessed as disease severity at 46.1% in 1.50 g/L applied once measured 7 days post-drug dose under greenhouse conditions (water Rvb = 17.5%). Format: functional, organism-based.

Data set [35] has as its system Podosphaera xanthii. Nature of the data set: Fungicidal activity against Podosphaera xanthii (powdery mildew) inoculated in inter-specific squash hybrid Strong tosa (Cucurbita moschata x Cucurbita maxima) rootstock seedlings for 7 days prior to drug application assessed as incidence of disease symptoms on hypocotyls or upper or lower sides of …. Format: functional, organism-based.

Data set [36] has as its system Podosphaera xanthii. Briefly: Fungicidal activity against Podosphaera xanthii (powdery mildew) inoculated in squash (Cucurbita pepo) rootstock seedlings continuously after first drug application assessed as disease severity at 46.1% in 1.50 g/L applied thrice at 5-days intervals measured 5 days after third application under green house conditions (water Rvb = 3.9%). Format: functional, organism-based.

For the compound `CC(C)(C)C(O)(CCc1ccc(Cl)cc1)Cn1cncn1` (stereo not drawn) [TEBUCONAZOLE], the Activity is reported as 0% in the data set with Podosphaera xanthii [1]; 0.005% in the data set on Podosphaera xanthii [2]; 0.2% with Podosphaera xanthii [3]; 34.9% in the data set on Podosphaera xanthii [4]; 0% with Podosphaera xanthii [5]; 0% in the data set with Podosphaera xanthii [6]. For the same compound, the Activity in data set [7] is 71%; with Podosphaera xanthii [9], 0.2%; in the data set with Podosphaera xanthii [10], 0.5%; in the data set on Podosphaera xanthii [11] it was 5.6%; in the data set on Podosphaera xanthii [12], 0%; with Podosphaera xanthii [13], 0.5%. The results for the Activity in the data set on Lagenaria siceraria [14] and in the data set on Podosphaera xanthii [16] were 100% and 0.7%, respectively. In addition, the “inhibition (INH)” value (in data set [8]; with Lagenaria siceraria [15]) was 33% throughout.
As for COPPER HYDROXIDE [listing 1 of 2 here], the Activity result (in [17]; in the data set on Lagenaria siceraria [18]; in data set [19]; in the data set on Lagenaria siceraria [20]) was “Non-toxic” in each case.
Consider `CCCCC(C#N)(Cn1cncn1)c1ccc(Cl)cc1` (stereo not drawn) [MYCLOBUTANIL], for which the Activity was 0% in the data set on Podosphaera xanthii [21]; 2.3% in the data set on Podosphaera xanthii [22]; 65.1% in the data set on Podosphaera xanthii [23]; 0.02% in the data set on Podosphaera xanthii [24]; 0.1% in the data set with Podosphaera xanthii [25]; 0% with Podosphaera xanthii [26]. In addition, the Activity worked out at 0.9% with Podosphaera xanthii [27], 4.1% in the data set on Podosphaera xanthii [28], 0.08% in the data set with Podosphaera xanthii [29] and 3.1% with Podosphaera xanthii [30]. The “inhibition (INH)” value (in data set [8]; with Lagenaria siceraria [15]) was 33% each time.
With COPPER HYDROXIDE [listing 2 of 2 here], the Activity stood at 9.2% in the data set with Podosphaera xanthii [31]; 4.3% with Podosphaera xanthii [32]; 8.2% with Podosphaera xanthii [33]; 13.6% in the data set with Podosphaera xanthii [34]; 97.7% with Podosphaera xanthii [35]; 0.21% in the data set on Podosphaera xanthii [36].
